Test results from patent publication US9995734B2, “Human T cell line assay for evaluating the immunologic identity of glatiramer acetate preparations” (Mylan Inc., priority 2013, dated 2018).
“And” between values parts separate entries of the source, which are not always exact repeats. Identical values can stand only once.

What was measured:
Format in all cases: cell-based, human
Donor 4 COP T-Cell Lines = test: ATP proliferation assay (CellTiter Glo), Donor 4 COP T-cell lines, incl. reactivity to non-canonical GA peptides; settings: for Non-Canonical Peptide Non-Reactivity: proliferation <2 times no antigen control; for Proliferation (luminescent ATP assay), Mean: T-cell line 205-1F4, autologous B-LCL
[1] = test system: Donor 1 GMA Expanded T-Cell Lines (222-AG11, 222-AG12, 222-BA11, 222-BC11); test: ATP proliferation assay (CellTiter Glo), Donor 1 GMA expanded T-cell lines, incl. reactivity to non-canonical GA peptides; settings: for Proliferation (luminescent ATP assay), Mean: T-cell line 222-AG12, autologous B-LCL
Description: Proliferation was evaluated by measuring ATP content using a luminescent method (CellTiter Glo Luminescent Cell Viability Assay, Promega, Madison, Wis., cat. #G7571) or by measuring BrdU uptake by ELISA (Millipore cat. #2752), in both cases following kit instructions. A split well format was used. Cells in each well were resuspended and 65 μl transferred to the wells of each of two new U-bottom 96-well plates, to generate the replicate plates. For the initial screening, the original 96-well plate received mitomycin-treated autologous PBMC as APC plus 10 μg/mL antigen (GA). A first replicate plate received 100 μl., mitomycin-treated PBMC alone (2×10^5), and no antigen, and a second replicate plate received 100 μL mitomycin-treated PBMC plus GA at a final concentration of 10 μg/mL. Therefore, all three plates received autologous APC (PBMC) treated with mitomycin C to prevent cell division. […] The latter two plates were incubated for 3 days at 37° C., 6% CO2 before adding CellTiter Glo or BrdU and measuring signal. IL-2 was added at 10 U/mL to the original 96-well plate for expansion on Day 17. For subsequent screenings, mitomycin-treated EBV-transformed autologous B-LCL (2×10^5 to 5×10^5 cells/mL) were used as APC.
On Day 24, cells from the wells corresponding to the eight presumptive GA-specific human T-cell lines listed in Table 4 were transferred to a 24-well plate and expanded by stimulating with 10 μg/mL GMA and mitomycin-treated autologous PBMC as APC (3×10^6 per well, i.e., 1.5×10^6/mL). On Day 32 four of the eight lines, 222-BA11, 222-BC11, 222-AG11, and 222-AG12, were stimulated with 0, 1, 10 and 100 μg/mL GMA and tested in a 96-well plate for a proliferative response to GMA using an ATP assay, again using autologous PBMC as APC (2×10^5 per well, i.e., 1×10^6/mL). […] FIGS. 2A and B show the results of the ATP proliferation assay carried out using 222-AG12, 222-BC11, 222-AG11, and 222-BA11 at Day 35 (control=no antigen). FIGS. 3A-C compare the results of ATP proliferation assays carried out after stimulation with varying concentrations of GMA or Copaxone as indicated, using cell lines 222-BA11, 222-BC11, and 222-AG12.
Donor 1 GMA T-cell line 222-AG12 was assayed for proliferation following stimulation with 0, 1, 10, and 30 μg/mL each of peptides GLT 631, GAT 631, GAT 111, LT 11, GT 11, GL 14, COP, and GMA, at a T-cell concentration of 2×10^5 cells/mL, in the presence of mitomycin C-treated autologous B-LCL. Line 222-AG12 was assayed after 3 rounds of restimulation (4 total stimulations). Proliferation was measured by luminescent ATP assay.

Donor 3 COP T-Cell Lines = test: ATP proliferation assay (CellTiter Glo), Donor 3 COP T-cell lines, incl. reactivity to non-canonical GA peptides; settings: for Non-Canonical Peptide Reactivity: at least one proliferation value >=2 times no antigen control

Question: Which results are given for poly (Lys-Tyr; 1:1) [LT 11]?
Answer: reactivity to non-canonical GA peptides (Donor 4 COP T-Cell Lines; 205-1F4 (sentence prints 165-1F4), Day 71, 0, 1, 3, 10 μg/mL): showed reactivity; reactivity to non-canonical GA peptide (Donor 4 COP T-Cell Lines; 205-1F4 (sentence prints 165-1F4), Day 80, 1, 2, 5, 10 μg/mL): showed reactivity; response relative to the no antigen control (Donor 4 COP T-Cell Lines; 205-1F4, Day 71, dose of 10 μg/mL antigen (text: Table 60)): 76.5 fold; response relative to the no antigen control (Donor 4 COP T-Cell Lines; 205-1F4, Day 80, dose of 10 μg/mL antigen (Table 58)): 17.3 fold; Non-Canonical Peptide Reactivity (Donor 4 COP T-Cell Lines; 205-1F4, at least one proliferation value >=2 times no antigen control): LT 11; response relative to the no antigen control (Donor 4 COP T-Cell Lines; 205-1F4, text Day 80, dose of 10 μg/mL antigen (text: Table 59)): 10.4 fold; Non-Canonical Peptide Non-Reactivity (Donor 4 COP T-Cell Lines; 205-1H3): LT 11; Non-Canonical Peptide Non-Reactivity (Donor 4 COP T-Cell Lines; 205-1H11): LT 11; Reactive T-Cell Line (Donor 4 COP T-Cell Lines; Donor 4 COP lines, at least a 50% increase in proliferation relative to a control after stimulation with the non-canonical GA peptide): 205-1F4 (Donor 4); Nonreactive T-Cell Line (Donor 4 COP T-Cell Lines; Donor 4 COP lines, stimulation with the non-canonical GA peptide): 205-1H3 (Donor 4); Proliferation (luminescent ATP assay), Mean (Donor 4 COP T-Cell Lines; Day 71, 1 μg/mL antigen): 73850; Proliferation (luminescent ATP assay), Mean (Donor 4 COP T-Cell Lines; Day 71, 3 μg/mL antigen): 154321; Proliferation (luminescent ATP assay), Mean (Donor 4 COP T-Cell Lines; Day 71, 10 μg/mL antigen): 158776; Proliferation (luminescent ATP assay), Mean (Donor 4 COP T-Cell Lines; Day 80, 1 μg/mL antigen): 3,675; Proliferation (luminescent ATP assay), Mean (Donor 4 COP T-Cell Lines; Day 80, 2 μg/mL antigen): 4,589; Proliferation (luminescent ATP assay), Mean (Donor 4 COP T-Cell Lines; Day 80, 5 μg/mL antigen): 7,626; Proliferation (luminescent ATP assay), Mean (Donor 4 COP T-Cell Lines; Day 80, 10 μg/mL antigen): 8,853; Reactivity (proliferation), Mean (Donor 4 COP T-Cell Lines; T-cell line 205-1H3, 1 μg/mL antigen, 0 μg/mL 4121.0): 4780.3; Reactivity (proliferation), Mean (Donor 4 COP T-Cell Lines; T-cell line 205-1H3, 3 μg/mL antigen, 0 μg/mL 4121.0): 3083.3; Reactivity (proliferation), Mean (Donor 4 COP T-Cell Lines; T-cell line 205-1H3, 10 μg/mL antigen, 0 μg/mL 4121.0): 3381.0; Reactivity (proliferation), Mean (Donor 4 COP T-Cell Lines; T-cell line 205-1H11, 1 μg/mL antigen, 0 μg/mL 6941): 5961 RLU; Reactivity (proliferation), Mean (Donor 4 COP T-Cell Lines; T-cell line 205-1H11, 10 μg/mL antigen, 0 μg/mL 6941): 6698 RLU; Reactivity (proliferation), Mean (Donor 4 COP T-Cell Lines; T-cell line 205-1H11, 30 μg/mL antigen, 0 μg/mL 6941): 4303 RLU; Non-Canonical Peptide Non-Reactivity ([1]; 222-AG12, proliferation <2 times no antigen control): LT 11; Nonreactive T-Cell Line ([1]; Donor 1 GMA expanded lines, stimulation with the non-canonical GA peptide): 222-AG12 (Donor 1); Proliferation (luminescent ATP assay), Mean ([1]; 1 ug/mL antigen): 3452 RLU; Proliferation (luminescent ATP assay), Mean ([1]; 10 ug/mL antigen): 4242 RLU; Proliferation (luminescent ATP assay), Mean ([1]; 30 ug/mL antigen): 2347 RLU; Non-Canonical Peptide Reactivity (Donor 3 COP T-Cell Lines; 165-C4C): LT 11; Non-Canonical Peptide Reactivity (Donor 3 COP T-Cell Lines; 165-C7C): LT 11; proliferation response to non-canonical GA peptides (Donor 3 COP T-Cell Lines; 165-F3C (Day 77) and 165-C4C (Day 66), 0, 1, 3, 10 μg/mL): responded well; Non-Canonical Peptide Reactivity (Donor 3 COP T-Cell Lines; 165-F3C): LT 11; Non-Canonical Peptide Non-Reactivity (Donor 3 COP T-Cell Lines; 165-F6C, proliferation <2 times no antigen control): LT 11; Reactive T-Cell Line (Donor 3 COP T-Cell Lines; Donor 3 COP lines, at least a 50% increase in proliferation relative to a control after stimulation with the non-canonical GA peptide): 165-C4C (Donor 3) and 165-C7C (Donor 3) and 165-F3C (Donor 3); Nonreactive T-Cell Line (Donor 3 COP T-Cell Lines; Donor 3 COP lines, stimulation with the non-canonical GA peptide): 165-F6C (Donor 3); Proliferation (luminescent ATP assay), Mean (Donor 3 COP T-Cell Lines; T-cell line 165-C4C, 1 μg/mL antigen, Day 66 of culture, 0 μg/mL 1881): 2430; Proliferation (luminescent ATP assay), Mean (Donor 3 COP T-Cell Lines; T-cell line 165-C4C, 3 μg/mL antigen, Day 66 of culture, 0 μg/mL 1881): 2701; Proliferation (luminescent ATP assay), Mean (Donor 3 COP T-Cell Lines; T-cell line 165-C4C, 10 μg/mL antigen, Day 66 of culture, 0 μg/mL 1881): 4129; Proliferation (luminescent ATP assay), Mean (Donor 3 COP T-Cell Lines; T-cell line 165-C7C, 1.25 μg/mL antigen, autologous B-LCL): 418 RLU; Proliferation (luminescent ATP assay), Mean (Donor 3 COP T-Cell Lines; T-cell line 165-C7C, 2.5 μg/mL antigen, autologous B-LCL): 305 RLU; Proliferation (luminescent ATP assay), Mean (Donor 3 COP T-Cell Lines; T-cell line 165-C7C, 5 μg/mL antigen, autologous B-LCL): 244 RLU; Proliferation (luminescent ATP assay), Mean (Donor 3 COP T-Cell Lines; T-cell line 165-C7C, 10 μg/mL antigen, autologous B-LCL): 119 RLU; Proliferation (luminescent ATP assay), Mean (Donor 3 COP T-Cell Lines; T-cell line 165-F3C, 1 μg/mL antigen, Day 77 of culture, 0 μg/mL 1563): 2144; Proliferation (luminescent ATP assay), Mean (Donor 3 COP T-Cell Lines; T-cell line 165-F3C, 3 μg/mL antigen, Day 77 of culture, 0 μg/mL 1563): 2605; Proliferation (luminescent ATP assay), Mean (Donor 3 COP T-Cell Lines; T-cell line 165-F3C, 10 μg/mL antigen, Day 77 of culture, 0 μg/mL 1563): 3608; Proliferation (luminescent ATP assay), Mean (Donor 3 COP T-Cell Lines; T-cell line 165-F6C, 1.25 μg/mL antigen, Day 76 of culture, No Antigen value 517): 431; Proliferation (luminescent ATP assay), Mean (Donor 3 COP T-Cell Lines; T-cell line 165-F6C, 2.5 μg/mL antigen, Day 76 of culture, No Antigen value 517): 518; Proliferation (luminescent ATP assay), Mean (Donor 3 COP T-Cell Lines; T-cell line 165-F6C, 5 μg/mL antigen, Day 76 of culture, No Antigen value 517): 490; Proliferation (luminescent ATP assay), Mean (Donor 3 COP T-Cell Lines; T-cell line 165-F6C, 10 μg/mL antigen, Day 76 of culture, No Antigen value 517): 736
